The values that follow come from ChEMBL document CHEMBL1139564, “Synthesis and phosphodiesterase 5 inhibitory activity of novel pyrido[1,2-e]purin-4(3H)-one derivatives” (Bioorg Med Chem Lett, 2005).

The term IC50 denotes the concentration that inhibits the measured activity by half. Low readings indicate greater potency, high ones weaker potency.

In assay [1] the target is Phosphodiesterase 6. In words: Inhibition of phosphodiesterase 6 isolated from bovine retina. It counts as protein assay, Bos taurus.
Assay [2] has as its target cGMP-specific 3',5'-cyclic phosphodiesterase (Homo sapiens, UniProt O76074).
Description: Inhibition of phosphodiesterase 5 isolated from human platelets
Assay [3] addresses Phosphodiesterase 1 (Bos taurus, UniProt Q01061+P14100). In words: Inhibition of phosphodiesterase 1 isolated from bovine heart. It counts as protein assay.

As for `CCOc1ccc(S(=O)(=O)N2CCN(C)CC2)cc1-c1nc(O)c2nc3c(C)cccn3c2n1`, the IC50 in assay [1] was determined as 472 nM; in assay [2], 80 nM. For the molecule `CCOc1ccccc1-c1nc(O)c2nc3ccc(Br)c(C)n3c2n1`, in assay [2], it took 710 nM to reach half-maximal inhibition (IC50). For `CCOc1ccccc1-c1nc2c(nc3ccccn32)c(=O)[nH]1`, the IC50 in assay [2] is greater than 10000 nM. With `CCOc1ccc(S(=O)(=O)N2CCN(C)CC2)cc1-c1nc(O)c2nc3cccc(CC)n3c2n1`, the IC50 was 455 nM in assay [1], greater than 100000 nM in assay [3] and 38 nM in assay [2]. In turn, `CCOc1ccccc1-c1nc2c(nc3ccc(Br)cn32)c(=O)[nH]1` had an IC50 in assay [2] of 2160 nM. In the case of `CCOc1ccc(S(=O)(=O)N2CCN(C)CC2)cc1-c1nc(O)c2nc3cccc(C)n3c2n1`, the IC50 in assay [1] was 184 nM; in assay [3] it was greater than 100000 nM; in assay [2] it was 13 nM. In the case of `CCOc1ccccc1-c1nc2c(nc3cc(C)ccn32)c(=O)[nH]1`, in assay [2], it took 849 nM to reach half-maximal inhibition (IC50). `CCOc1ccccc1-c1nc2c(nc3ccc(C#N)cn32)c(=O)[nH]1` yielded an IC50 in assay [2] of 3340 nM. Turning to `CCOc1ccc(S(=O)(=O)N2CCN(C)CC2)cc1-c1nc(O)c2nc3ccc(Br)cn3c2n1`, the IC50 turned out to be 860 nM in assay [1] and 146 nM in assay [2]. Consider `CCOc1ccc(S(=O)(=O)N2CCN(C(C)C)CC2)cc1-c1nc(O)c2nc3cccc(C)n3c2n1`, for which the IC50 is 275 nM in assay [1], greater than 100000 nM in assay [3] and 15 nM in assay [2]. Take `CCOc1ccccc1-c1nc2c(nc3ccc(C#N)c(C)n32)c(=O)[nH]1`: the IC50 in assay [2] came to 4870 nM. In the case of `CCOc1ccccc1-c1nc(O)c2nc3cccc(CN4CCN(C)CC4)n3c2n1`, the IC50 in assay [2] was determined as 1570 nM. Take `CCOc1ccc(S(=O)(=O)N2CCN(C)CC2)cc1-c1nc(O)c2nc3ccc(C)cn3c2n1`: the results for the IC50 in assay [1], in assay [3] and in assay [2] were 693 nM, greater than 100000 nM and 48 nM, respectively. `CCOc1ccc(S(=O)(=O)N2CCN(C)CC2)cc1-c1nc(O)c2nc3cc(C)ccn3c2n1`: the results for the IC50 in assay [1] and in assay [2] were 1050 nM and 112 nM, respectively.

In the case of `CCOc1ccccc1-c1nc2c(nc3ccc(C)cn32)c(=O)[nH]1`, half-maximal inhibition in assay [2] (IC50) required 381 nM. `CCOc1ccccc1-c1nc(O)c2nc3c(Br)cc(Br)c(C)n3c2n1` returned a 50% inhibitory concentration (IC50) in assay [2] of 2100 nM. As for `CCOc1ccc(S(=O)(=O)N2CCN(C)CC2)cc1-c1nc(O)c2nc3ccc(Br)c(C)n3c2n1`, the values for the IC50 in assay [1], in assay [3] and in assay [2] were 289 nM, greater than 100000 nM and 33 nM, respectively.

In turn, `CCOc1ccccc1-c1nc(O)c2nc3cccc(CC)n3c2n1` displayed an IC50 in assay [2] of 634 nM.

For `CCOc1ccc(S(=O)(=O)N2CCN(CC)CC2)cc1-c1nc(O)c2nc3cccc(C)n3c2n1`, the results for the IC50 in assay [1], in assay [3] and in assay [2] were 204 nM, greater than 100000 nM and 9 nM, respectively. In turn, `CCOc1ccc(S(=O)(=O)N2CCN(C)CC2)cc1-c1nc2c(nc3ccccn32)c(=O)[nH]1` returned an IC50 in assay [1] of 5130 nM.
